Patent US20190231757A1, “COMBINATION OF SPLEEN TYROSINE KINASE INHIBITORS AND OTHER THERAPEUTIC AGENTS” (Takeda Pharmaceutical Company Limited, priority 2016, published 2019)

Experiments:
Assay type in all cases: in vivo, mouse
TMD8 DLBCL xenografts [1] = experiment: Antitumor activity in CB17 SCID mice bearing TMD8 DLBCL xenografts, ABT-199 or gemcitabine combination (Example 9); conditions: Day 14, alone or combined with Compound A; for TGI (%): Compound A 60 mg/kg PO QD, ABT-199 25 mg/kg PO QD, gemcitabine 5 mg/kg IP Q3D x4; for Mean Tumor Volume (mm^3) ± SEM / T/C: Compound A 60 mg/kg, ABT-199 25 mg/kg, gemcitabine 5 mg/kg
Experimental: Tumor growth inhibition was calculated on Day 14 of the study. The last measurement was taken on Day 29 of the study.
(§1) Experimental design: Female CB17 SCID mice (Taconic Biosciences; weight at treatment start was about 19 g) were inoculated subcutaneously in the flank (cell suspension) with 5.0×10^6 TMD8 cells. Tumor growth was monitored with vernier calipers. Tumor volume was calculated using the formula V=W^2×L/2, where V=volume, W=width and L=length of the tumor. When the mean tumor volume reached approximately 245 mm^3, the animals were randomized into 6 treatment groups (n=8/group). […] Tumor growth and body weight were measured twice per week. Tumor growth inhibition and body weight change were calculated on Day 14 of treatment.
(§2) Statistical analysis: The differences in the tumor growth trends over time between pairs of treatment groups were assessed using linear mixed effects regression models. These models account for the fact that each animal was measured at multiple time points. A separate model was fit for each comparison, and the areas under the curve (AUC) for each treatment group were calculated using the predicted values from the model. The percent decrease in AUC (dAUC) relative to the reference group was then calculated. […] Further details regarding pairwise comparisons are provided in the Example 2.
(§3) Drug combinations were assessed for synergy using observed AUC values. The change in AUC relative to the control was calculated for both single agent treatment groups as well as the combination group. The interaction between the two compounds was then assessed by comparing the change in AUC observed in the combination group to the sum of the changes observed in both single agents. The results can be divided into four categories: synergistic, additive, sub-additive, and antagonistic. Further details regarding combination analyses are provided in the Example 2.
(§4) Once a final analysis was selected, the tumor measurements observed on a date pre-specified by the researcher (typically the last day of treatment) were analyzed to assess tumor growth inhibition. For this analysis, a T/C ratio was calculated for each animal by dividing the tumor measurement for the given animal by the mean tumor measurement across all control animals. The T/C ratios across a treatment group were compared to the T/C ratios of the control group using a two-tailed Welch's t-test.

TMD8 DLBCL xenografts [2] = experiment: Antitumor activity in CB17 SCID mice bearing TMD8 DLBCL xenografts, gemcitabine combination (Example 8); conditions: Day 14, alone or combined
Experimental: Tumor growth inhibition was calculated on Day 14 of the study. The last measurement was taken on Day 40 of the study.
as §1, with “was” for “was about”, “215” for “245”, “into” for “into 6”
as §2
as §3, with “analysis” for “analyses”
as §4

[3] = Body weight and tolerability, TMD8 ABT-199/gemcitabine study (Example 9); conditions: alone or combined with Compound A; for % BW Change (Day Maximum): Compound A 60 mg/kg PO QD 14 d, ABT-199 25 mg/kg PO QD 14 d, gemcitabine 5 mg/kg IP Q3D x4; for Number of animals removed: Compound A 60 mg/kg, ABT-199 25 mg/kg, gemcitabine 5 mg/kg
Experimental: as §1

OCI-LY10 xenografts = experiment: Antitumor activity in CB17 SCID mice bearing OCI-LY10 xenografts, gemcitabine combination (Example 7); conditions: Day 21
Experimental: Tumor growth inhibition was calculated on Day 21 of the study. The last measurement was taken on Day 42 of the study.
as §1, with “20” for “about 19”, “4.0×10^6 OCI-Ly10” for “5.0×10^6 TMD8”, “cells.” for “cells. Tumor growth was monitored with vernier calipers.”, “199” for “245”, “21” for “14”
as §2, §3, §4

[4] = Body weight and tolerability, TMD8 gemcitabine study (Example 8); conditions: alone or combined
Experimental: as §1, with “was” for “was about”, “215” for “245”, “into” for “into 6”

[5] = Body weight and tolerability, OCI-LY10 gemcitabine study (Example 7)
Experimental: as §1, with “20” for “about 19”, “4.0×10^6 OCI-Ly10” for “5.0×10^6 TMD8”, “cells.” for “cells. Tumor growth was monitored with vernier calipers.”, “199” for “245”, “21” for “14”

[6] = system: WSU-Luc human lymphoma xenografts; experiment: Antitumor activity in SCID mice bearing WSU-Luc human lymphoma xenografts, ibrutinib combination (Example 12); conditions: Day 20, alone or combined
Experimental: The study ended on Day 20 of dosing.
(§5) Tumor growth was monitored with vernier calipers. Tumor volume was calculated using the formula V=W^2×L/2, where V=volume, W=width and L=length of the tumor. When the mean tumor volume reached approximately 190 mm^3, the animals were randomized into treatment groups (n=8/group). […] Tumor growth and body weight were measured twice per week. Tumor growth inhibition and body weight change were calculated on Day 20 of treatment.
Statistical analysis: The differences in the tumor growth trends over time between pairs of treatment groups were assessed using linear mixed effects regression models. These models account for the fact that each animal was measured at multiple time points. A separate model was fit for each comparison, and the areas under the curve (AUC) for each treatment group were calculated using the predicted values from the model. The percent decrease in AUC (dAUC) relative to the reference group was then calculated.
The change in AUC relative to the control was calculated for both single agent treatment groups as well as the combination group. […] The results can be divided into four categories: synergistic, additive, sub-additive, and antagonistic.
For this analysis, a T/C ratio was calculated for each animal by dividing the tumor measurement for the given animal by the mean tumor measurement across all control animals. The T/C ratios across a treatment group were compared to the T/C ratios of the control group using a two-tailed Welch's t-test.

[7] = Body weight and tolerability, WSU-Luc ibrutinib study (Example 12); conditions: Compound A 60 mg/kg; ibrutinib 20 mg/kg; alone or combined
Experimental: as §5

[8] = system: OCI-Ly10 human DLBCL xenografts; experiment: Antitumor activity in SCID mice bearing OCI-Ly10 human DLBCL xenografts, ibrutinib or bendamustine combination (Example 5); conditions: Day 21, Compound A 60 mg/kg PO QD, ibrutinib 6 mg/kg PO QD, bendamustine 1 mg/kg IV BIW (6 doses), alone or combined with Compound A
OCI-LY 10 xenografts = experiment: Antitumor activity in CB17 SCID mice bearing OCI-LY10 xenografts, ABT-199 combination (Example 11); conditions: Day 21
Experimental: Tumor growth inhibition was calculated on Day 21 of the study. The last measurement was taken on Day 46 of the study.
(§6) Experimental design: Female CB17 SCID mice (Charles River Laboratories, about 21 g at treatment start) were inoculated subcutaneously in the flank (cell suspension) with 4.0×10^6 OCI-Ly10 cells. Tumor growth was monitored with vernier calipers. Tumor volume was calculated using the formula V=W^2×L/2, where V=volume, W=width and L=length of the tumor. When the mean tumor volume reached approximately 175 mm^3, the animals were randomized into treatment groups (n=5/group). […] Tumor growth and body weight were measured twice per week. Tumor growth inhibition and body weight change were calculated on Day 21 of treatment.
as §2, §3, §4

[9] = Body weight and tolerability, OCI-LY10 ABT-199 study (Example 11)
Experimental: as §6

[10] = system: OCI-Ly10 human lymphoma xenografts; experiment: Antitumor activity in SCID mice bearing OCI-Ly10 human lymphoma xenografts, bendamustine and rituximab (Example 6); conditions: Day 21; Compound A 30 mg/kg PO QD x21; bendamustine 1 mg/kg IV BIW; rituximab 1 mg/kg IV QW x3; alone or combined
[11] = system: Ly19 human lymphoma xenografts; experiment: Antitumor activity in SCID mice bearing Ly19 xenografts, rituximab combination (Example 14); conditions: alone or combined
[12] = system: Ly10 human lymphoma xenografts; experiment: Antitumor activity in SCID mice bearing Ly10 xenografts, rituximab combination (Example 13); conditions: alone or combined
[13] = Compound A 60 mg/kg PO QD, gemcitabine 5 mg/kg IP Q3D x4
[14] = Compound A 60 mg/kg, gemcitabine 5 mg/kg
[15] = Compound A 60 mg/kg PO QD, gemcitabine 2.5 mg/kg IP Q3D, alone or combined
[16] = Compound A 60 mg/kg, gemcitabine 2.5 mg/kg, alone or combined
[17] = gemcitabine 5 mg/kg IP Q3D, alone or with Compound A 60 mg/kg PO QD
[18] = gemcitabine 5 mg/kg, alone or with Compound A 60 mg/kg
[19] = Compound A 60 mg/kg, ibrutinib 20 mg/kg
[20] = ABT-199 25 mg/kg, alone or with Compound A 60 mg/kg
[21] = Compound A 60 mg/kg, ABT-199 12.5 mg/kg, alone or combined
[22] = Day 14, Compound A 60 mg/kg PO QD x14, rituximab 10 mg/kg IV QW x2
[23] = Day 21, Compound A 60 mg/kg PO QD x21, rituximab 1 mg/kg IV QW x3

Nc1ccn([C@@H]2O[C@H](CO)[C@@H](O)C2(F)F)c(=O)n1 [gemcitabine]
TGI (%) (TMD8 DLBCL xenografts [1]): 70.3%
Mean Tumor Volume (mm^3) ± SEM (TMD8 DLBCL xenografts [1]): 440.2 ± 70.9 mm^3
T/C (TMD8 DLBCL xenografts [1]): 0.30
Mean Tumor Volume (mm^3) ± SEM (TMD8 DLBCL xenografts [2]; [13]): 294.7 ± 36.5 mm^3
TGI (%) (TMD8 DLBCL xenografts [2]; [13]): 67.1%
T/C (TMD8 DLBCL xenografts [2]; [14]): 0.33
% BW Change (Day Maximum) [3]: −0.2 (11) %
Number of animals removed [3]: 0
Mean Tumor Volume (mm^3) ± SEM (OCI-LY10 xenografts; [15]): 561.7 ± 52.5 mm^3
TGI (%) (OCI-LY10 xenografts; [15]): 52.6%
T/C (OCI-LY10 xenografts; [16]): 0.47
Mean Tumor Volume (mm^3) ± SEM (OCI-LY10 xenografts; [17]): 331.3 ± 57.6 mm^3
TGI (%) (OCI-LY10 xenografts; [17]): 72.1%
T/C (OCI-LY10 xenografts; [18]): 0.28
% BW Change (Day Maximum) ([4]; Compound A 60 mg/kg PO QD 14 d, gemcitabine 5 mg/kg IP Q3D x4): −0.1 (4) %
Number of animals removed [4, 14]: 0
% BW Change (Day Maximum) ([5]; Compound A 60 mg/kg PO QD 21 d, gemcitabine 2.5 mg/kg IP Q3D (4 doses), alone or combined): 7.5 (21) %
Number of animals removed [5, 16]: 0
% BW Change (Day Maximum) ([5]; gemcitabine 5 mg/kg IP Q3D (4 doses), alone or with Compound A 60 mg/kg PO QD): −1.4 (3) %
Number of animals removed [5, 18]: 0

C=CC(=O)N1CCC[C@@H](n2nc(-c3ccc(Oc4ccccc4)cc3)c3c(N)ncnc32)C1 [ibrutinib]
TGI (%) ([6]; Compound A 60 mg/kg PO QD, ibrutinib 20 mg/kg PO QD): 0.5%
Mean Tumor Volume (mm^3) ± SEM [6, 19]: 1,085.2 ± 109.9 mm^3
T/C [6, 19]: 1.00
Number of animals removed [7]: 0
TGI [8]: 18%
TGI ([8]; listed as Ibrutinib): 18.0%

CC1(C)CCC(CN2CCN(c3ccc(C(=O)NS(=O)(=O)c4ccc(NCC5CCOCC5)c([N+](=O)[O-])c4)c(Oc4cnc5[nH]ccc5c4)c3)CC2)=C(c2ccc(Cl)cc2)C1 [ABT-199, venetoclax]
TGI (%) (TMD8 DLBCL xenografts [1]): 29.1%
Mean Tumor Volume (mm^3) ± SEM (TMD8 DLBCL xenografts [1]): 1,048.9 ± 136.1 mm^3
T/C (TMD8 DLBCL xenografts [1]): 0.71
TGI (%) (OCI-LY 10 xenografts; ABT-199 25 mg/kg PO QD, alone or with Compound A 60 mg/kg PO QD): 9.2%
Mean Tumor Volume (mm^3) ± SEM (OCI-LY 10 xenografts; [20]): 950.3 ± 182.1 mm^3
T/C (OCI-LY 10 xenografts; [20]): 0.91
TGI (%) (OCI-LY 10 xenografts; Compound A 60 mg/kg PO QD, ABT-199 12.5 mg/kg PO QD, alone or combined): −0.4%
Mean Tumor Volume (mm^3) ± SEM (OCI-LY 10 xenografts; [21]): 1,050.6 ± 221.4 mm^3
T/C (OCI-LY 10 xenografts; [21]): 1.00
% BW Change (Day Maximum) [3]: −0.4 (11) %
Number of animals removed [3]: 0
% BW Change (Day Maximum) ([9]; ABT-199 25 mg/kg PO QD 21 d, alone or with Compound A 60 mg/kg PO QD): −1.5 (14) %
Number of animals removed [9, 20]: 1
% BW Change (Day Maximum) ([9]; Compound A 60 mg/kg PO QD 21 d, ABT-199 12.5 mg/kg PO QD 21 d, alone or combined): 4.6 (21) %
Number of animals removed [9, 21]: 0

rituximab
TGI [10]: 33.4%
Mean Tumor Volume (mm^3) ± SEM at Day 14 [11, 22]: 516.8 ± 113.3 mm^3
TGI (%) [11, 22]: 79.5%
dAUC ([11]; vs vehicle, Compound A 60 mg/kg, rituximab 10 mg/kg): 61.8
Mean Tumor Volume (mm^3) ± SEM at Day 21 [12, 23]: 301.8 ± 30.8 mm^3
TGI (%) [12, 23]: 66.7%
dAUC ([12]; vs vehicle, Compound A 60 mg/kg, rituximab 1 mg/kg): 77.6
